Test results taken from article PMC4264749, “Phlebotomy Treatment for Elimination of Perfluoroalkyl Acids in a Highly Exposed Family: A Retrospective Case-Series” (PLoS ONE, 2014).
Read-outs that look alike come from different tables or passages of the source.

What was measured:
[1] = Serum PFAA concentrations in family members during intermittent phlebotomy (HPLC-MS/MS); assay type: in vivo, human; conditions: for Serum concentration before treatment: before phlebotomy; for Serum concentration after treatment: after phlebotomy
Source text: After receiving informed consent, intermittent phlebotomy was undertaken at an overall rate (Table 2) that was equal to or less than the maximum rate of what is done for routine blood donations at the Canadian Blood Services: ∼500 ccs of whole blood every 56 days. Frequency and timing of blood removal was not consistent between family members because of their personal availability, success at each time of venesection, and compliance of each participant. […] Mineral supplementation was discussed and was taken by each participant.
All serum samples were submitted to ALS Laboratories (Edmonton, AB) for quantitative analysis of PFAAs (see Supporting Information, S1 Table). Samples were extracted by solid phase extraction and concentrations of PFHxS, PFOS, and PFOA were determined using high performance liquid chromatography/tandem mass spectrometry. Formic acid (0.1 M) along with a mixture of isotopically labeled PFAAs (Wellington Laboratories, Guelph, Ontario) were added to 1.0 mL of serum. The mixture was vortexed, sonicated, and subjected to solid phase extraction. The extract was concentrated to 100 uL and an instrument performance internal standard was added along with 200 uL of 90% 20 mM aqueous acetic acid/10% methanol. Procedural blanks were run with each set of samples, and method limits of quantification (LOQ) were 0.5 ng/mL for each analyte. For the few PFAA levels that fell below this LOQ (shown as hollow circles in Figs. 1–3), LOQ/√2 (i.e. 0.35 ng/mL) was substituted for purposes of data analysis. PFHxS, PFOS, and PFOA levels in all participating family members were >LOQ throughout the intervention except for 3 PFOS measurements out of 16 total measurements in the 3rd child and one PFOA measurement out of 9 total measurements in the […]. Written informed consent was given by participants (or parents in the case of children) for their clinical records to be used in this study.

[2] = Apparent elimination half-life (HLapp) and phlebotomy efficiency coefficient in treated family members; assay type: in vivo, human; conditions: family members with regular phlebotomy, except parent
Source text: To evaluate the effect of phlebotomy, versus the expected rate of intrinsic elimination, we graphically and statistically compared the observed decreasing trends in each family member (fitted to a simple exponential decay model) with reference population elimination kinetics. Specifically, for the reference population of occupationally exposed retirees, we considered: i) the 95% confidence interval of the geometric mean elimination rate for each PFAA, and ii) the fastest individual rate of elimination rate among the reference population. For comparative purposes, the concentration of each PFAA in serum on the first day of the intervention was taken as time zero, and the models were forced through this starting point.
One metric that was calculated to compare the efficiency of the phlebotomy for removal of different PFAAs in each family member was termed the phlebotomy efficiency coefficient (EC). This was based on the subtractive difference between HLapp (yrs) in each treated family member and the geometric mean HLin (yrs) of the reference population according to Equation 1 . [drawing 1] (1)

[3] = set-up: method as in PMID 17805419; conditions: cited from earlier work
[4] = set-up: method as in PMID 23980546; conditions: urinary excretion, China, cited from earlier work
[5] = set-up: method as in earlier work; conditions: 2009–2011; cited from earlier work

O=S(=O)(O)C(F)(F)C(F)(F)C(F)(F)C(F)(F)C(F)(F)C(F)(F)C(F)(F)C(F)(F)F [PFOS, perfluoroctane sulfonate]
Serum concentration before treatment ([1]; 1st Child): 19.3 ng/mL | Serum concentration ([1]; 1st Child, sampling date 2009.10.12): 14.3 ng/mL | Serum concentration ([1]; 1st Child, sampling date 2009.12.24): 16.1 ng/mL | Serum concentration ([1]; 1st Child, sampling date 2009.6.9): 19.3 ng/mL | Serum concentration ([1]; 1st Child, sampling date 2009.9.9): 14.8 ng/mL | Serum concentration ([1]; 1st Child, sampling date 2010.10.14): 0.73 ng/mL | Serum concentration ([1]; 1st Child, sampling date 2010.1.17): 11.3 ng/mL | Serum concentration ([1]; 1st Child, sampling date 2010.2.11): 6.84 ng/mL | Serum concentration ([1]; 1st Child, sampling date 2010.4.14): 17.9 ng/mL | Serum concentration ([1]; 1st Child, sampling date 2011.12.5): 0.93 ng/mL | Serum concentration ([1]; 1st Child, sampling date 2011.5.17, LOD=0.5ng/mL): <LOD | Serum concentration ([1]; 1st Child, sampling date 2011.8.12, LOD=0.5ng/mL): <LOD | Serum concentration ([1]; 1st Child, sampling date 2012.12.28, LOD=0.5ng/mL): <LOD | Serum concentration ([1]; 1st Child, sampling date 2012.4.24): 2.12 ng/mL | Serum concentration ([1]; 1st Child, sampling date 2012.8.21): 1.44 ng/mL | Serum concentration ([1]; 1st Child, sampling date 2013.3.30): 0.61 ng/mL | Serum concentration ([1]; 1st Child, sampling date 2013.7.30): 1.59 ng/mL | Serum concentration before treatment ([1]; 2nd Child): 59.7 ng/mL | Serum concentration ([1]; 2nd Child, sampling date 2009.10.24): 44.7 ng/mL | Serum concentration ([1]; 2nd Child, sampling date 2009.6.6): 59.7 ng/mL | Serum concentration ([1]; 2nd Child, sampling date 2009.7.2): 51.9 ng/mL | Serum concentration ([1]; 2nd Child, sampling date 2009.7.30): 51.9 ng/mL | Serum concentration ([1]; 2nd Child, sampling date 2009.8.24): 67.8 ng/mL | Serum concentration ([1]; 2nd Child, sampling date 2009.9.27): 41.4 ng/mL | Serum concentration ([1]; 2nd Child, sampling date 2010.1.3): 36.6 ng/mL | Serum concentration ([1]; 2nd Child, sampling date 2010.2.15): 47.7 ng/mL | Serum concentration ([1]; 2nd Child, sampling date 2011.10.2): 1.8 ng/mL | Serum concentration ([1]; 2nd Child, sampling date 2011.12.24): 13.9 ng/mL | Serum concentration ([1]; 2nd Child, sampling date 2011.4.27): 7.0 ng/mL | Serum concentration ([1]; 2nd Child, sampling date 2011.8.14): 4.6 ng/mL | Serum concentration ([1]; 2nd Child, sampling date 2012.12.24): 5.5 ng/mL | Serum concentration ([1]; 2nd Child, sampling date 2012.4.6): 12.2 ng/mL | Serum concentration ([1]; 2nd Child, sampling date 2013.5.11.): 9.2 ng/mL | Serum concentration ([1]; 2nd Child, sampling date 2013.7.15): 9.0 ng/mL | Serum concentration before treatment ([1]; 3rd Child): 87.3 ng/mL | Serum concentration ([1]; 3rd Child, sampling date 2009.10.11): 107.0 ng/mL | Serum concentration ([1]; 3rd Child, sampling date 2009.12.16): 48.9 ng/mL | Serum concentration ([1]; 3rd Child, sampling date 2009.6.1): 87.3 ng/mL | Serum concentration ([1]; 3rd Child, sampling date 2009.7.4): 102.9 ng/mL | Serum concentration ([1]; 3rd Child, sampling date 2009.8.7): 76.5 ng/mL | Serum concentration ([1]; 3rd Child, sampling date 2009.9.7): 113.0 ng/mL | Serum concentration ([1]; 3rd Child, sampling date 2010.1.24): 58.8 ng/mL | Serum concentration ([1]; 3rd Child, sampling date 2010.3.12): 66.3 ng/mL | Serum concentration ([1]; 3rd Child, sampling date 2010.5.23): 52.8 ng/mL | Serum concentration ([1]; 3rd Child, sampling date 2011.1.6): 18.6 ng/mL | Serum concentration ([1]; 3rd Child, sampling date 2011.11.26): 9.2 ng/mL | Serum concentration ([1]; 3rd Child, sampling date 2011.2.24): 11.9 ng/mL | Serum concentration ([1]; 3rd Child, sampling date 2011.4.30): 12.1 ng/mL | Serum concentration ([1]; 3rd Child, sampling date 2011.6.13): 11.5 ng/mL | Serum concentration ([1]; 3rd Child, sampling date 2011.9.27): 4.8 ng/mL | Serum concentration ([1]; 3rd Child, sampling date 2012.10.16): 17.1 ng/mL | Serum concentration ([1]; 3rd Child, sampling date 2012.1.8): 20.8 ng/mL | Serum concentration ([1]; 3rd Child, sampling date 2012.12.9): 10.5 ng/mL | Serum concentration ([1]; 3rd Child, sampling date 2012.3.4): 25.4 ng/mL | Serum concentration ([1]; 3rd Child, sampling date 2012.4.28): 19.8 ng/mL | Serum concentration ([1]; 3rd Child, sampling date 2013.10.27): 12.2 ng/mL | Serum concentration ([1]; 3rd Child, sampling date 2013.2.5): 8.8 ng/mL | Serum concentration ([1]; 3rd Child, sampling date 2013.3.30): 8.0 ng/mL | Serum concentration ([1]; 3rd Child, sampling date 2013.5.5): 12.8 ng/mL | Serum concentration ([1]; 3rd Child, sampling date 2013.7.25): 13.4 ng/mL | Serum concentration ([1]; 3rd Child, sampling date 2013.9.8): 12.0 ng/mL | starting serum concentration relative to 95th percentile among Canadians ([1]; 3 youngest children): 3–5 fold | Serum concentration after treatment ([1]; 4th Child): 5.0 ng/mL | Serum concentration before treatment ([1]; 4th Child): 62.4 ng/mL | Serum concentration ([1]; 4th Child, sampling date 2010.1.24): 26.8 ng/mL | Serum concentration after treatment ([1]; Average of 6 family members): 6.7 ng/mL | Serum concentration before treatment ([1]; Average of 6 family members): 43.4 ng/mL | Serum concentration before treatment ([1]; Parent one): 15.1 ng/mL | Serum concentration ([1]; Parent one, sampling date 2009.10.11): 8.8 ng/mL | Serum concentration ([1]; Parent one, sampling date 2009.10.12): 9.2 ng/mL | Serum concentration ([1]; Parent one, sampling date 2009.11.12): 11.0 ng/mL | Serum concentration ([1]; Parent one, sampling date 2009.12.14): 8.6 ng/mL | Serum concentration ([1]; Parent one, sampling date 2009.2.2): 15.1 ng/mL | Serum concentration ([1]; Parent one, sampling date 2009.5.18): 13.2 ng/mL | Serum concentration ([1]; Parent one, sampling date 2009.6.1): 11.8 ng/mL | Serum concentration ([1]; Parent one, sampling date 2009.7.4): 9.8 ng/mL | Serum concentration ([1]; Parent one, sampling date 2009.9.1): 11.3 ng/mL | Serum concentration ([1]; Parent one, sampling date 2010.10.10): 6.1 ng/mL | Serum concentration ([1]; Parent one, sampling date 2010.1.17): 8.6 ng/mL | Serum concentration ([1]; Parent one, sampling date 2010.3.13): 6.8 ng/mL | Serum concentration ([1]; Parent one, sampling date 2011.1.6): 2.3 ng/mL | Serum concentration ([1]; Parent one, sampling date 2011.11.26): 1.4 ng/mL | Serum concentration ([1]; Parent one, sampling date 2011.2.24): 2.1 ng/mL | Serum concentration ([1]; Parent one, sampling date 2011.4.30): 1.5 ng/mL | Serum concentration ([1]; Parent one, sampling date 2011.6.22): 1.6 ng/mL | Serum concentration ([1]; Parent one, sampling date 2011.8.4): 1.3 ng/mL | Serum concentration ([1]; Parent one, sampling date 2011.9.27): 0.5 ng/mL | Serum concentration ([1]; Parent one, sampling date 2012..12.28): 0.66 ng/mL | Serum concentration ([1]; Parent one, sampling date 2012.1.14): 3.8 ng/mL | Serum concentration ([1]; Parent one, sampling date 2012.11.1): 1.7 ng/mL | Serum concentration ([1]; Parent one, sampling date 2012.3.4): 3.7 ng/mL | Serum concentration ([1]; Parent one, sampling date 2012.4.29): 2.7 ng/mL | Serum concentration ([1]; Parent one, sampling date 2012.7.8): 3.1 ng/mL | Serum concentration ([1]; Parent one, sampling date 2012.8.21): 3.1 ng/mL | Serum concentration ([1]; Parent one, sampling date 2013.10.27): 1.4 ng/mL | Serum concentration ([1]; Parent one, sampling date 2013.2.18): 1.3 ng/mL | Serum concentration ([1]; Parent one, sampling date 2013.3.30): 1.5 ng/mL | Serum concentration ([1]; Parent one, sampling date 2013.5.11): 2.5 ng/mL | Serum concentration ([1]; Parent one, sampling date 2013.7.15): 2.3 ng/mL | Serum concentration ([1]; Parent one, sampling date 2013.9.8): 1.4 ng/mL | Serum concentration before treatment ([1]; Parent two): 16.3 ng/mL | Serum concentration ([1]; Parent two, sampling date 2009.6.1): 16.3 ng/mL | Serum concentration ([1]; Parent two, sampling date 2009.7.7): 10.9 ng/mL | Serum concentration ([1]; Parent two, sampling date 2009.8.24): 10.4 ng/mL | Serum concentration ([1]; Parent two, sampling date 2010.1.3): 5.7 ng/mL | Serum concentration ([1]; Parent two, sampling date 2010.4.11, LOD=0.5ng/mL): 4.4 ng/mL | Serum concentration ([1]; Parent two, sampling date 2012.3.13): 4.1 ng/mL | Serum concentration ([1]; Parent two, sampling date 2013.1.1): 2.5 ng/mL | Serum concentration ([1]; Parent two, sampling date 2013.10.6): 11.0 ng/mL | Serum concentration ([1]; Parent two, sampling date 2013.6.22): 3.4 ng/mL | HLapp compared with geometric mean HLin of reference population [2]: significantly shorter | HLin of fastest eliminator in the reference population ([3]; reference population of occupationally exposed retirees (26 individuals)): 2.4 yrs | 95% confidence interval of the geometric mean HLin ([3]; reference population of occupationally exposed retirees): 4.0–5.8 yrs | intrinsic human elimination half-life (HLin) ([3]; serum, highly contaminated retirees >55 yrs, previously occupationally exposed): 5.4 years | HLin, 95% confidence interval ([3]; serum, retirees >55 yrs, previously occupationally exposed): 3.9–6.9 yrs | HLapp ([4]; males and post-menopausal females): 27 years | HLapp ([4]; reproductive-aged females): 6.2 years | 95th percentile of serum concentration among Canadians [5]: 18 ng/mL
